In the supplement of paper PMC10307832:

What was measured:
Assay in all cases: relative viability (nuclei count vs DMSO), 5 days (fraction); higher = more cells survive
[1] = compound: CN1CCC(CNc2ccc3ncc(-c4cccc(OC(F)(F)F)c4)n3n2)CC1 [SGI-1776] + O=C(CCCCCCC(=O)Nc1ccccc1)NO [Vorinostat] (partner 1 µM)
Outline: (§1)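 For relative viability, nuclei counts in treated wells were divided by those in vehicle wells. Lung cancer cell lines had been pin-tool dosed in 1536-well plates the day after seeding and cultured for 5 days, then fixed and stained in one step (final 0.05% Triton X-100, 1% formaldehyde, 1 ug/ml Hoechst) and imaged at 4×. Doses were one drug alone or a fixed anchor-drug dose plus five library-drug doses (not always all listed) in √10 steps, and values are duplicate-plate medians.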

[2] = compound: CN1CCC(CNc2ccc3ncc(-c4cccc(OC(F)(F)F)c4)n3n2)CC1 [SGI-1776] + C[C@@H](Oc1cc(-c2cnn(C3CCNCC3)c2)cnc1N)c1c(Cl)ccc(F)c1Cl [Crizotinib] (partner 1 µM)
Outline: as §1

[3] = compound: CN1CCC(CNc2ccc3ncc(-c4cccc(OC(F)(F)F)c4)n3n2)CC1 [SGI-1776] + Nc1ncn([C@H]2C[C@H](O)[C@@H](CO)O2)c(=O)n1 [Decitabine] (partner 2 µM)
Outline: as §1

[4] = compound: Nc1ccccc1NC(=O)c1ccc(CNC(=O)OCc2cccnc2)cc1 [Entinostat] + O=C(CCCCCCC(=O)Nc1ccccc1)NO [Vorinostat] (partner 1 µM)
Outline: as §1

Cell Line | relative viability ([1]; first compound 0.08 µM) | relative viability ([1]; first compound 0.8 µM) | relative viability ([1]; first compound 2.53 µM) | relative viability ([1]; first compound 8 µM) | relative viability ([2]; first compound 0.08 µM) | relative viability ([2]; first compound 0.8 µM) | relative viability ([2]; first compound 2.53 µM) | relative viability ([2]; first compound 8 µM) | relative viability ([3]; first compound 0.08 µM) | relative viability ([3]; first compound 0.8 µM) | relative viability ([3]; first compound 2.53 µM) | relative viability ([3]; first compound 8 µM) | relative viability ([4]; first compound 0.02 µM) | relative viability ([4]; first compound 0.06325 µM) | relative viability ([4]; first compound 0.2 µM) | relative viability ([4]; first compound 0.6325 µM) | relative viability ([4]; first compound 2 µM)
COR-L23 | 0.581 | 0.387 | 0.41 | 0.327 | 0.821 | 0.491 | 0.519 | 0.495 | 0.445 | 0.456 | 0.466 | 0.342 | 0.368 | 0.503 | 0.423 | 0.208 | 0.238
NCI-H2009 | 0.756 | 0.761 | 0.671 | 0.588 | 1.04 | 1.02 | 1.07 | 0.675 | 0.388 | 0.374 | 0.36 | 0.342 | 0.664 | 0.72 | 0.762 | 0.581 | 0.416
NCI-H3122 | 1.15 | 0.917 | 1.07 | 1.07 | 0.284 | 0.3 | 0.295 | 0.335 | 0.414 | 0.457 | 0.452 | 0.47 | 1.09 | 0.904 | 0.979 | 0.634 | 0.255
NCI-H2228 | 0.613 | 0.884 | 0.679 | 0.429 | 0.523 | 0.417 | 0.396 | 0.15 | – | – | – | – | 0.675 | 0.683 | 0.761 | 0.406 | 0.32
NCI-H1944 | 0.584 | 0.646 | 0.553 | 0.477 | 1.1 | 0.956 | 1.03 | 0.867 | 0.427 | 0.439 | 0.468 | 0.396 | 0.59 | 0.576 | 0.452 | 0.307 | 0.246
NCI-H2342 | 0.78 | 0.723 | 0.707 | 0.799 | – | – | – | – | 0.776 | 0.707 | 0.658 | 0.712 | 0.855 | 0.859 | 0.709 | 0.772 | 0.691
NCI-H358 | 0.686 | 1.06 | 0.634 | 0.625 | 0.53 | 0.393 | 0.244 | 0.292 | 0.223 | 0.245 | 0.191 | 0.133 | 0.67 | 0.618 | 0.947 | 0.211 | 0.117
NCI-H1755 | 0.809 | 0.87 | 0.733 | 0.6 | 0.863 | 0.898 | 0.89 | 0.808 | 0.714 | 0.695 | 0.717 | 0.622 | 0.762 | 0.728 | 0.769 | 0.48 | 0.374
A-427 | 0.861 | 0.9 | 0.882 | 0.815 | 0.849 | 0.92 | 0.974 | 0.601 | 0.601 | 0.587 | 0.539 | 0.521 | 0.87 | 0.875 | 0.864 | 0.781 | 0.617
SK-LU-1 | 0.892 | 0.803 | 0.697 | 0.648 | 1.04 | 0.833 | 0.756 | 0.352 | 0.671 | 0.665 | 0.658 | 0.645 | 0.775 | 0.801 | 0.747 | 0.579 | 0.582
